In BigSolDB 2.1:

COC(=O)[C@@H](N)CS.Cl
Conditions	solubility (mole fraction)
in 1,4-dioxane, 288.15 K	0.00083
in 1,4-dioxane, 293.15 K	0.001
in 1,4-dioxane, 298.15 K	0.0013
in 1,4-dioxane, 303.15 K	0.00147
in 1,4-dioxane, 308.15 K	0.00184
in 1,4-dioxane, 313.15 K	0.00211
in 1,4-dioxane, 318.15 K	0.00232
in 1,4-dioxane, 323.15 K	0.00269
in 1,4-dioxane, 328.15 K	0.00305
in 1,4-dioxane, 333.15 K	0.00349
in 2-butanone, 283.15 K	0.00065
in 2-butanone, 288.15 K	0.00084
in 2-butanone, 293.15 K	0.00108
in 2-butanone, 298.15 K	0.00132
in 2-butanone, 303.15 K	0.00164
in 2-butanone, 308.15 K	0.00192
in 2-butanone, 313.15 K	0.00225
in 2-butanone, 318.15 K	0.0025
in 2-butanone, 323.15 K	0.00333
in 2-butanone, 328.15 K	0.00418
in 2-butanone, 333.15 K	0.00573
in acetone, 283.15 K	0.00062
in acetone, 288.15 K	0.00073
in acetone, 293.15 K	0.00082
in acetone, 298.15 K	0.00087
in acetone, 303.15 K	0.00093
in acetone, 308.15 K	0.00101
in acetone, 313.15 K	0.00111
in acetone, 318.15 K	0.00124
in acetone, 323.15 K	0.00152
in acetonitrile, 283.15 K	0.00021
in acetonitrile, 288.15 K	0.00029
in acetonitrile, 293.15 K	0.00032
in acetonitrile, 298.15 K	0.0004
in acetonitrile, 303.15 K	0.00043
in acetonitrile, 308.15 K	0.0005
in acetonitrile, 313.15 K	0.00062
in acetonitrile, 318.15 K	0.00091
in acetonitrile, 323.15 K	0.00098
in acetonitrile, 328.15 K	0.00104
in acetonitrile, 333.15 K	0.00123
in dichloromethane, 283.15 K	5e-05
in dichloromethane, 288.15 K	7e-05
in dichloromethane, 293.15 K	9e-05
in dichloromethane, 298.15 K	0.00011
in dichloromethane, 303.15 K	0.00013
in ethanol, 283.15 K	0.0232
in ethanol, 288.15 K	0.0257
in ethanol, 293.15 K	0.029
in ethanol, 298.15 K	0.0337
in ethanol, 303.15 K	0.0428
in ethanol, 308.15 K	0.0471
in ethanol, 313.15 K	0.0536
in ethanol, 318.15 K	0.0622
in ethanol, 323.15 K	0.0722
in ethanol, 328.15 K	0.0864
in ethanol, 333.15 K	0.1
in ethyl acetate, 283.15 K	7e-05
in ethyl acetate, 288.15 K	0.0001
in ethyl acetate, 293.15 K	0.00012
in ethyl acetate, 298.15 K	0.00015
in ethyl acetate, 303.15 K	0.00018
in ethyl acetate, 308.15 K	0.00023
in ethyl acetate, 313.15 K	0.00027
in ethyl acetate, 318.15 K	0.0003
in ethyl acetate, 323.15 K	0.00032
in ethyl acetate, 328.15 K	0.00042
in ethyl acetate, 333.15 K	0.00052
in isobutanol, 283.15 K	0.00393
in isobutanol, 288.15 K	0.00437
in isobutanol, 293.15 K	0.00478
in isobutanol, 298.15 K	0.00541
in isobutanol, 303.15 K	0.00634
in isobutanol, 308.15 K	0.00718
in isobutanol, 313.15 K	0.0086
in isobutanol, 318.15 K	0.00972
in isobutanol, 323.15 K	0.0125
in isobutanol, 328.15 K	0.0162
in isobutanol, 333.15 K	0.0196
in isopropanol, 283.15 K	0.0036
in isopropanol, 288.15 K	0.00389
in isopropanol, 293.15 K	0.00422
in isopropanol, 298.15 K	0.00512
in isopropanol, 303.15 K	0.00585
in isopropanol, 308.15 K	0.00648
in isopropanol, 313.15 K	0.00806
in isopropanol, 318.15 K	0.0097
in isopropanol, 323.15 K	0.0127
in isopropanol, 328.15 K	0.0153
in isopropanol, 333.15 K	0.0188
in methanol, 283.15 K	0.0906
in methanol, 288.15 K	0.0944
in methanol, 293.15 K	0.106
in methanol, 298.15 K	0.114
in methanol, 303.15 K	0.127
in methanol, 308.15 K	0.139
in methanol, 313.15 K	0.155
in methanol, 318.15 K	0.168
in methanol, 323.15 K	0.187
in methanol, 328.15 K	0.212
in methanol, 333.15 K	0.257
in n-butanol, 283.15 K	0.00537
in n-butanol, 288.15 K	0.00599
in n-butanol, 293.15 K	0.0067
in n-butanol, 298.15 K	0.00847
in n-butanol, 303.15 K	0.0106
in n-butanol, 308.15 K	0.0124
in n-butanol, 313.15 K	0.0136
in n-butanol, 318.15 K	0.0164
in n-butanol, 323.15 K	0.0198
in n-butanol, 328.15 K	0.0238
in n-butanol, 333.15 K	0.0306
in n-pentanol, 283.15 K	0.0039
in n-pentanol, 288.15 K	0.00462
in n-pentanol, 293.15 K	0.0054
in n-pentanol, 298.15 K	0.00662
in n-pentanol, 303.15 K	0.00824
in n-pentanol, 308.15 K	0.00924
in n-pentanol, 313.15 K	0.0111
in n-pentanol, 318.15 K	0.0125
in n-pentanol, 323.15 K	0.0149
in n-pentanol, 328.15 K	0.0187
in n-pentanol, 333.15 K	0.0236
in n-propanol, 283.15 K	0.00805
in n-propanol, 288.15 K	0.00883
in n-propanol, 293.15 K	0.0106
in n-propanol, 298.15 K	0.0124
in n-propanol, 303.15 K	0.0145
in n-propanol, 308.15 K	0.0161
in n-propanol, 313.15 K	0.0193
in n-propanol, 318.15 K	0.0219
in n-propanol, 323.15 K	0.0272
in n-propanol, 328.15 K	0.0306
in n-propanol, 333.15 K	0.0384
in sec-butanol, 283.15 K	0.00252
in sec-butanol, 288.15 K	0.00265
in sec-butanol, 293.15 K	0.00283
in sec-butanol, 298.15 K	0.00372
in sec-butanol, 303.15 K	0.00416
in sec-butanol, 308.15 K	0.00455
in sec-butanol, 313.15 K	0.00513
in sec-butanol, 318.15 K	0.0063
in sec-butanol, 323.15 K	0.0082
in sec-butanol, 328.15 K	0.00958
in sec-butanol, 333.15 K	0.0112
